Experiments:
GST-Bcl-2 = experiment: TR-FRET binding assay, Bcl-2; conditions: TR-FRET Ki values
How it was run: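 Ki values come from Wang's competitive-binding equation applied to TR-FRET signal (excitation 340/35 nm; emission 520/525 nm F-Bak peptide, 495/510 nm Tb antibody). Protein, probe and antibody incubated with compound 3 h at room temperature; dilution series began at 50 μM as 2× stock in 10% DMSO.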

FL5.12/Bcl-2 cells = experiment: FL5.12/Bcl-2 cell viability assay; type: cell-based, murine; conditions: ratio of canine platelet EC50 to FL5.12/Bcl-2 EC50
How it was run: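 Viability measured by CellTitre Glo after FL5.12/Bcl-2 murine cells, starved of IL-3 for 48 hrs, were treated with compounds for another 24 hrs. Killing reflects inhibition of Bcl-2 sequestration of Bim and Puma.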

| Structure (SMILES) | Binding selectivity ratio (Bcl-XL Ki/Bcl-2 Ki) (GST-Bcl-2) | Selectivity Ratio (Platelet EC50/FL5.12/Bcl-2 EC50) (FL5.12/Bcl-2 cells) |
| --- | --- | --- |
| O=C(NS(=O)(=O)c1ccc(NCCCN2CCOCC2)c([N+](=O)[O-])c1)c1ccc(N2CCN(Cc3ccccc3-c3ccc(Cl)cc3)CC2)cc1Oc1ccccc1 [Example 155, 4-{4-[(4′-chloro-1,1′-biphenyl-2-yl)methyl]piperazin-1-yl}-N-({4-[(3-morpholin-4-ylpropyl)amino]-3-nitrophenyl}sulfonyl)-2-phenoxybenzamide] | 77.8 | >119 |
| O=C(NS(=O)(=O)c1ccc(NCC2CCOCC2)c([N+](=O)[O-])c1)c1ccc(N2CCN(Cc3c(OCCN4CCOCC4)cccc3-c3ccc(Cl)cc3)CC2)cc1Oc1ccc2[nH]ccc2c1 [Example 132, 4-(4-{[4′-chloro-3-(2-morpholin-4-ylethoxy)-1,1′-biphenyl-2-yl]methyl}piperazin-1-yl)-2-(1H-indol-5-yloxy)-N-({3-nitro-4-[(tetrahydro-2H-pyran-4-ylmethyl)amino]phenyl}sulfonyl)benzamide] | 570.1 | >1196 |
| CN(C)CCCNc1ccc(S(=O)(=O)NC(=O)c2ccc(N3CCN(Cc4ccccc4-c4ccc(Cl)cc4)CC3)cc2Oc2ccccc2)cc1[N+](=O)[O-] [Example 154, 4-{4-[(4′-chloro-1,1′-biphenyl-2-yl)methyl]piperazin-1-yl}-N-[(4-{[3-(dimethylamino)propyl]amino}-3-nitrophenyl)sulfonyl]-2-phenoxybenzamide] | 40.4 | 343 |
| CN1CCN(Nc2ccc(S(=O)(=O)NC(=O)c3ccc(N4CCN(CC5=C(c6ccc(Cl)cc6)CC(C)(C)CC5)CC4)cc3Oc3ccc4[nH]ccc4c3)cc2[N+](=O)[O-])CC1 [Example 174, 4-(4-{[2-(4-chlorophenyl)-4,4-dimethylcyclohex-1-en-1-yl]methyl}piperazin-1-yl)-2-(1H-indol-5-yloxy)-N-({4-[(4-methylpiperazin-1-yl)amino]-3-nitrophenyl}sulfonyl)benzamide] | 591.3 | 1857 |
| CN1CCN(CCCNc2ccc(S(=O)(=O)NC(=O)c3ccc(N4CCN(Cc5ccccc5-c5ccc(Cl)cc5)CC4)cc3Oc3ccccc3)cc2[N+](=O)[O-])CC1 [Example 86, 4-{4-[(4′-chloro-1,1′-biphenyl-2-yl)methyl]piperazin-1-yl}-N-[(4-{[3-(4-methylpiperazin-1-yl)propyl]amino}-3-nitrophenyl)sulfonyl]-2-phenoxybenzamide] | 49.6 | 489 |
| CN1CCC(CNc2ccc(S(=O)(=O)NC(=O)c3ccc(N4CCN(Cc5ccccc5-c5ccc(Cl)cc5)CC4)cc3Oc3ccccc3)cc2[N+](=O)[O-])CC1 [Example 88, 4-{4-[(4′-chloro-1,1′-biphenyl-2-yl)methyl]piperazin-1-yl}-N-[(4-{[(1-methylpiperidin-4-yl)methyl]amino}-3-nitrophenyl)sulfonyl]-2-phenoxybenzamide] | 67.3 | 613 |
| CC1(C)CCC(CN2CCN(c3ccc(C(=O)NS(=O)(=O)c4ccc(NCCCN5CCCC5)c([N+](=O)[O-])c4)c(Oc4cccc5[nH]ccc45)c3)CC2)=C(c2ccc(C(F)(F)F)cc2)C1 [Example 69, 4-[4-({4,4-dimethyl-2-[4-(trifluoromethyl)phenyl]cyclohex-1-en-1-yl}methyl)piperazin-1-yl]-2-(1H-indol-4-yloxy)-N-({3-nitro-4-[(3-pyrrolidin-1-ylpropyl)amino]phenyl}sulfonyl)benzamide] | 74 | >666 |
| O=C(NS(=O)(=O)c1ccc(NCCCN2CCCC2)c([N+](=O)[O-])c1)c1ccc(N2CCN(Cc3cc(OCCN4CCOCC4)ccc3-c3ccc(Cl)cc3)CC2)cc1Oc1ccc2[nH]ccc2c1 [Example 136, 4-(4-{[4′-chloro-4-(2-morpholin-4-ylethoxy)-1,1′-biphenyl-2-yl]methyl}piperazin-1-yl)-2-(1H-indol-5-yloxy)-N-({3-nitro-4-[(3-pyrrolidin-1-ylpropyl)amino]phenyl}sulfonyl)benzamide] | 238.9 | >263 |
| CN(C)CCOc1cccc(-c2ccc(Cl)cc2)c1CN1CCN(c2ccc(C(=O)NS(=O)(=O)c3ccc(NCC4CCOCC4)c([N+](=O)[O-])c3)c(Oc3ccccc3)c2)CC1 [Example 122, 4-[4-({4′-chloro-3-[2-(dimethylamino)ethoxy]-1,1′-biphenyl-2-yl}methyl)piperazin-1-yl]-N-({3-nitro-4-[(tetrahydro-2H-pyran-4-ylmethyl)amino]phenyl}sulfonyl)-2-phenoxybenzamide] | 209.4 | >1259 |
| O=C(NS(=O)(=O)c1ccc(NCC2CCOCC2)c([N+](=O)[O-])c1)c1ccc(N2CCN(Cc3c(OCCN4CCOCC4)cccc3-c3ccc(Cl)cc3)CC2)cc1Oc1cccc2[nH]ccc12 [Example 131, 4-(4-{[4′-chloro-3-(2-morpholin-4-ylethoxy)-1,1′-biphenyl-2-yl]methyl}piperazin-1-yl)-2-(1H-indol-4-yloxy)-N-({3-nitro-4-[(tetrahydro-2H-pyran-4-ylmethyl)amino]phenyl}sulfonyl)benzamide] | 2292.2 | >1597 |
| CN(C)CCOc1ccc(-c2ccc(Cl)cc2)c(CN2CCN(c3ccc(C(=O)NS(=O)(=O)c4ccc(NCC5CCOCC5)c(S(=O)(=O)C(F)(F)F)c4)c(Oc4ccccc4)c3)CC2)c1 [Example 120, 4-[4-({4′-chloro-4-[2-(dimethylamino)ethoxy]-1,1′-biphenyl-2-yl}methyl)piperazin-1-yl]-2-phenoxy-N-({4-[(tetrahydro-2H-pyran-4-ylmethyl)amino]-3-[(trifluoromethyl)sulfonyl]phenyl}sulfonyl)benzamide] | 224.8 | >157 |
| O=C(NS(=O)(=O)c1ccc(NCCCN2CCCC2)c([N+](=O)[O-])c1)c1ccc(N2CCN(CC3=C(c4ccc(Cl)cc4)CCC3)CC2)cc1Oc1cccc2[nH]ccc12 [Example 143, 4-(4-{[2-(4-chlorophenyl)cyclopent-1-en-1-yl]methyl}piperazin-1-yl)-2-(1H-indol-4-yloxy)-N-({3-nitro-4-[(3-pyrrolidin-1-ylpropyl)amino]phenyl}sulfonyl)benzamide] | 33.8 | >251 |
| CC1(C)CCC(CN2CCN(c3ccc(C(=O)NS(=O)(=O)c4ccc(NCCCN5CCCC5)c([N+](=O)[O-])c4)c(Oc4cccc5[nH]ccc45)c3)CC2)=C(c2ccc(OC(F)(F)F)cc2)C1 [Example 70, 4-[4-({4,4-dimethyl-2-[4-(trifluoromethoxy)phenyl]cyclohex-1-en-1-yl}methyl)piperazin-1-yl]-2-(1H-indol-4-yloxy)-N-({3-nitro-4-[(3-pyrrolidin-1-ylpropyl)amino]phenyl}sulfonyl)benzamide] | 62.4 | >450 |
